“Also recorded” adds a separate entry of the source. Square brackets hold non-standard residues; d marks the D form. Peptide text beside a SMILES is read from it. * marks the point of attachment. Benzoyl(4-SiFtBu2) = CC(C)(C)[Si](F)(c1ccc(C(=O)*)cc1)C(C)(C)C; αMePhe(2-F) = C[C@](N)(Cc1ccccc1F)C(=O)O; hPhe = N[C@@H](CCc1ccccc1)C(=O)O; Dap = NC[C@H](N)C(=O)O; Aib = CC(C)(N)C(=O)O Bounds are passed on as bounds.

Details of series [1]: method as in Gotthardt et al., 2007. Conditions: rats, pre-administration; ref Gotthardt et al., 2007; cited from earlier work.
Series [2] addresses T1, human GLP-1 receptor (Homo sapiens, UniProt P43220). The series is described as follows: Competitive binding (IC50) on HEK293-hGLP-1R cells with radioligand [Nle^14, [^125I]Tyr(3-I)^40]exendin-4. Also noted: Dr. Timothy Kieffer (University of British Columbia); host or cells: HEK293. The following applies: for IC50 ± SD (result in words): ligand range 10^-11 to 10^-5 M. The method, then: Dr. Timothy Kieffer (University of British Columbia, Vancouver, Canada). Cells were cultivated in high glucose DMEM (25.0 mM D-glucose, 3.97 mM GlutaMAX; REF-number: 61965–026; Fisher Scientific GmbH, Schwerte, Germany) supplemented with 10% fetal bovine serum and 1 mM sodium pyruvate. Medium for stably transfected HEK293-hGLP-1R cells was constantly supplemented with 1 mg/mL Geneticin (G-418 Biochrom, Merck KgaA, Darmstadt, Germany) as selection antibiotic. The cell line was kept at 37 °C in a humidified 5% CO2 atmosphere. One day (24 ± 2 h) prior to all in vitro experiments, the cultivated HEK293-h-GLP-1R cells were harvested using a mixture of trypsin/ethylenediaminetetraacetic acid (0.05%/0.02%) in phosphate-buffered saline (PBS) (Gibco, Germany) and centrifuged at 1300 rpm (ca. 190×g) for 3 min at room temperature (Heraeus Megafuge 16, Thermo Fisher, Germany). After centrifugation, the supernatant was disposed and the cell pellet was resuspended in culture medium. Cells were counted with a Neubauer hemocytometer (Paul Marienfeld GmbH & Co. KG, Lauda-Königshofen, Germany) and seeded in 24-well plates. IC50 values were determined by transferring 1.50 × 10^5 cells/mL per well into 24-well plates.
Detailed information on affinity experiments is provided in the SI. In brief, competitive binding studies were determined on HEK293-hGLP-1R cells (1.50 × 10^5 cells in 1 mL/well) after incubation at 4 °C for 2 hours, using [^125I]Tyr(3-I)^40–3 (0.41 nM/well) as reference radioligand (n = 3).
Dr. Timothy J. Kieffer (University of British Columbia, Vancouver, Canada). Cells were cultivated in high glucose DMEM (25.0 mM D-glucose, 3.97 mM GlutaMAX; REF-number: 61965-026; Fisher Scientific GmbH, Schwerte, Germany) supplemented with 10% fetal bovine serum and 1 mM sodium pyruvate. Medium for stably transfected HEK293-hGLP-1R cells was constantly supplemented with 1 mg/mL Geneticin (G-418 Biochrom, Merck KgaA, Darmstadt, Germany) as selection antibiotic. The cell line was kept at 37 °C in a humidified 5% CO2 atmosphere. One day (24 ± 2 h) prior to all in vitro experiments, the cultivated cells were harvested using a mixture of trypsin/ethylenediaminetetraacetic acid (0.05%/0.02%) in phosphate-buffered saline (PBS) (Merck KgaA, Darmstadt, Germany) and centrifuged at 1300 rpm (ca. 190 × g) for 3 min at room temperature (Heraeus Megafuge 16, Thermo Fisher Scientific, Darmstadt, Germany). After centrifugation, the supernatant was disposed and the cell pellet was resuspended in culture medium. Cells were counted with a Neubauer hemocytometer (Paul Marienfeld GmbH & Co. KG, Lauda-Königshofen, Germany) and seeded in 24-well plates (Greiner Bio-One, Kremsmünster, Austria). IC50 values were determined by transferring 1.50 × 10^5 cells/mL per well into 24-well plates (Greiner Bio-One, Kremsmünster, Austria).
The culture medium was removed and the cells were washed with 500 µL of Hank’s balanced salt solution (HBSS) (Merck KGaA, Darmstadt, Germany), containing 1% bovine serum albumin (BSA) (Merck KGaA, Darmstadt, Germany). Afterwards, 200 µL of HBSS (1% BSA) were added to each well and equilibrated on ice (4 °C) for 15 min. 25 µL/well of either HBSS (1% BSA) (= control) or of solutions, containing the respective unlabeled ligand in increasing concentrations (10^-10 - 10^-4 M in HBSS) were added, followed by the addition of 25 µL of [Nle^14, [^125I]Tyr(3-I)^40]exendin-4 in HBSS (1% BSA) to each well. Experiments were carried out in triplicates for each concentration. The final concentrations of unlabeled ligand ranged from 10^-11 - 10^-5 M and the final radioligand concentration was 0.41 nM in all binding assays. The cells were incubated for two hours at 4 °C. Incubation was terminated by removal of the incubation medium. The cells were washed with 250 µL of HBSS (1% BSA) and the wash medium was combined with the respective supernatant. This fraction represents the amount of free radioligand. The cells were lysed by addition of 250 µL of 1 M aqueous NaOH. […]

Series [3] has as its target T1, human GLP-1 receptor. The description is as above. Conditions: w/o BSA, HBSS. Also noted: Dr. Timothy Kieffer (University of British Columbia); host or cells: HEK293.
The nature of series [4]: Stability study of the reference radioligand stock solution (RCP by radio-RP-HPLC). Format: physicochemical. Here is the method: ^125I-labeling. The radioiodinated reference ligand [Nle^14, [^125I]Tyr(3-I)^40]exendin-4 ([^125I]Tyr(3-I)^40–3) was prepared via the Iodogen method (Salacinski et al., [1981]), with some minor modifications. […] The solution was transferred to a vial, which has been precoated with 15.0 μg Iodogen (34.7 nmol, 139 eq.). Afterwards, 15 ± 5 MBq [^125I] NaI (74 MBq/nmol, 3.7 GBq/mL in 40 mM NaOH, Hartmann Analytic, Braunschweig, Germany) (5.00 μL, 250 pmol, 1.00 eq.) were added, the reaction solution was incubated for 15 min at r.t. and 150 μL thereof were purified by radio-RP-HPLC (0% B (2 min) ➔ 0–37.5% B (3 min) ➔ 37.5% B (35 min) ➔ 38% B (10 min), Method A*, 1 mL/min) to afford 3.15 MBq (48.8% RCY, > 99% RCP) of product [^125I]Tyr(3-I)^40–3. The radioligand was stored in the HPLC solvent (stock solution) at − 80 °C until further use. The radioligand stock solution was used to a maximum of 14 days to ensure a RCP of > 92% (Table 1 in the Additional file 1) and replaced by freshly prepared radioligand afterwards. Prior to the in vitro experiments, the radioligand was dissolved in HBSS (with or w/o 1% BSA) to achieve a final concentration of 0.41 nM in the respective assays. *Method A: solvent A = water + 0.1% TFA, solvent B = acetonitrile + 2% water + 0.1% TFA.
Table 1: Stability study of reference radioligand [^125I]Tyr(3-I)^40]-3, (n = 1).

T1 sequence (P43220 24-463): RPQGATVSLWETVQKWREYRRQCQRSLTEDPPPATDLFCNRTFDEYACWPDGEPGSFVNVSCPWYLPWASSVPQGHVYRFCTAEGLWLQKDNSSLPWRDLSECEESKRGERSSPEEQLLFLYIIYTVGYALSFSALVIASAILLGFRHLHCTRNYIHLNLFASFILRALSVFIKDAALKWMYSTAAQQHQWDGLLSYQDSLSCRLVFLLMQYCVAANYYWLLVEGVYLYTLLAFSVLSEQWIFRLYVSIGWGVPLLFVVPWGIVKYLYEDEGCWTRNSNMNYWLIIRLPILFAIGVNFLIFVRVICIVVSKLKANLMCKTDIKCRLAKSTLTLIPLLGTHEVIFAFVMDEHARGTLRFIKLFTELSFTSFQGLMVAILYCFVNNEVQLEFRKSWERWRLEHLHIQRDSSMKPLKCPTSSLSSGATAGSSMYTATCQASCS

Turning to `NCCCC[C@H](N)C(=O)O` [L-lysine], the “decrease of kidney uptake of [^111In]In-DTPA-exendin-4” value in series [1] is listed as “did not show any effect”.
By IC50 is commonly meant the concentration at which inhibition is half-maximal. Regarding `C[C@@H](O)[C@H](NC(=O)CNC(=O)[C@H](CCC(=O)O)NC(=O)C(C)(C)NC(=O)[C@@H](N)Cc1c[nH]cn1)C(=O)N[C@@](C)(Cc1ccccc1)C(=O)N[C@H](C(=O)N[C@@H](CO)C(=O)N[C@@H](CC(=O)O)C(=O)N[C@@H](CNC(=O)c1ccc([Si](F)(C(C)(C)C)C(C)(C)C)cc1)C(=O)N[C@@H](CCc1ccccc1)C(N)=O)[C@@H](C)O` [Peptide 4, H-L-His-Aib-L-Glu-Gly-L-Thr-L-(α-Me)Phe-L-Thr-L-Ser-L-Asp-L-Dap(SiFA)-L-homoPhe-NH2], the half-maximal inhibitory concentration (IC50) at human GLP-1 receptor [2] amounted to 2400 nM. The “IC50 ± SD (result in words)” value on human GLP-1 receptor [2] (w/ BSA (1% BSA)) is on record as “no detectable affinity”. Further, the “maximal radioligand displacement (of maximal radioligand binding)” value on human GLP-1 receptor [3] was 61–69%.
The corresponding values for `C[C@@H](O)[C@H](NC(=O)CNC(=O)[C@H](CCC(=O)O)NC(=O)C(C)(C)NC(=O)[C@@H](N)Cc1c[nH]cn1)C(=O)N[C@@](C)(Cc1ccccc1F)C(=O)N[C@H](C(=O)N[C@@H](CO)C(=O)N[C@@H](CC(=O)O)C(=O)N[C@@H](CNC(=O)c1ccc([Si](F)(C(C)(C)C)C(C)(C)C)cc1)C(=O)N[C@@H](CCc1ccccc1)C(N)=O)[C@@H](C)O` [Peptide 5, H-L-His-Aib-L-Glu-Gly-L-Thr-L-(α-Me)Phe(2-F)-L-Thr-L-Ser-L-Asp-L-Dap(SiFA)-L-homoPhe-NH2] are 189 ± 35 nM, “no detectable affinity” and 61–69%.
On human GLP-1 receptor [2], `CC(C)C[C@H](NC(=O)[C@H](CNC(=O)c1ccc([Si](F)(C(C)(C)C)C(C)(C)C)cc1)NC(=O)[C@H](CO)NC(=O)[C@H](CO)NC(=O)[C@@H](NC(=O)[C@H](CC(=O)O)NC(=O)[C@H](CO)NC(=O)[C@@H](NC(=O)[C@](C)(Cc1ccccc1F)NC(=O)[C@@H](NC(=O)CNC(=O)[C@H](CCC(=O)O)NC(=O)C(C)(C)NC(=O)[C@@H](N)Cc1c[nH]cn1)[C@@H](C)O)[C@@H](C)O)C(C)C)C(=O)N[C@@H](CCC(=O)O)C(N)=O` [Peptide 10, H-L-His-Aib-L-Glu-Gly-L-Thr-L-(α-Me)Phe(2-F)-L-Thr-L-Ser-L-Asp-L-Val-L-Ser-L-Ser-L-Dap(SiFA)- L-Leu-L-Glu-NH2] (H-H[Aib]EGT[αMePhe(2-F)]TSDVSS[Dap](Benzoyl(4-SiFtBu2))LE-NH2) displayed an IC50 of 2950 ± 310 nM.
Same read-out and setting: with `CC(C)C[C@H](NC(=O)[C@H](CNC(=O)c1ccc([Si](F)(C(C)(C)C)C(C)(C)C)cc1)NC(=O)[C@H](CO)NC(=O)[C@H](CCc1ccccc1)NC(=O)[C@@H](NC(=O)[C@H](CC(=O)O)NC(=O)[C@H](CO)NC(=O)[C@@H](NC(=O)[C@](C)(Cc1ccccc1F)NC(=O)[C@@H](NC(=O)CNC(=O)[C@H](CCC(=O)O)NC(=O)C(C)(C)NC(=O)[C@@H](N)Cc1c[nH]cn1)[C@@H](C)O)[C@@H](C)O)C(C)C)C(=O)N[C@@H](CCC(=O)O)C(N)=O` [Peptide 11, H-L-His-Aib-L-Glu-Gly-L-Thr-L-(α-Me)Phe(2-F)-L-Thr-L-Ser-L-Asp-L-Val-L-homoPhe-L-Ser-L-Dap(SiFA)-L-Leu-L-Glu-NH2] (H-H[Aib]EGT[αMePhe(2-F)]TSDV[hPhe]S[Dap](Benzoyl(4-SiFtBu2))LE-NH2) the figure was 7120 ± 2470 nM.
Consider “H-L-His-Aib-L-Glu-Gly-L-Thr-L-(α-Me)Phe(2-F)-L-Thr-L-Ser-L-Asp-L-Val-L-Dap(SiFA)-NH2 [Peptide 9]”, for which the “IC50 ± SD (result in words)” value on human GLP-1 receptor [2] (w/ and w/o BSA) was “no affinity was detected; also recorded: no detectable affinity n = 2 (w/ and w/o BSA)”.
On the same count and under the same terms, the entry for “H-L-His-Aib-L-Glu-Gly-L-Thr-L-(α-Me)Phe(2-F)-L-Thr-L-Ser-L-Asp-NH2 [Peptide 7]” is “no detectable affinity n = 2 (w/ and w/o BSA)”.
Still for that read-out and setting: the entry for “H-L-His-Aib-L-Glu-Gly-L-Thr-L-(α-Me)Phe(2-F)-L-Thr-L-Ser-L-Asp-O2Oc-L/D-Dap(SiFA)-L-Leu-L-Glu-NH2 [Peptide 13]” is “no radioligand displacement was observed; also recorded: no detectable affinity n = 2 (w/ and w/o BSA)”.
On the same count and under the same terms, with “H-L-His-Aib-L-Glu-Gly-L-Thr-L-(α-Me)Phe-L-Thr-L-Ser-L-Asp-L-Phe(4-I)-L-homoPhe-NH2 [Peptide 8]” the entry was “eliminated any detectable affinity; also recorded: no detectable affinity n = 2 (w/ and w/o BSA)”.
“H-L-His-Aib-L-Glu-Gly-L-Thr-L-(α-Me)Phe-L-Thr-L-Ser-L-Asp-OH [Peptide 6]”: at human GLP-1 receptor [2] (w/ BSA (1% BSA)), the “IC50 ± SD (result in words)” value is “no detectable affinity n = 1 (w/ BSA)”.
For “[Nle^14, [^125I]Tyr(3-I)^40]exendin-4 [[^125I]Tyr(3-I)^40-3]”, the RCP is ≥ 95% (n = 4) in series [4] (0 days after radioiodination, stock in HPLC solvent at −80 °C, n = 4); 95% in series [4] (4 days after radioiodination, stock in HPLC solvent at −80 °C); 95% in series [4] (9 days after radioiodination, stock in HPLC solvent at −80 °C); 92% in series [4] (16 days after radioiodination, stock in HPLC solvent at −80 °C); 82% in series [4] (20 days after radioiodination, stock in HPLC solvent at −80 °C); 82% in series [4] (24 days after radioiodination, stock in HPLC solvent at −80 °C). The RCP in series [4] (29 days after radioiodination, stock in HPLC solvent at −80 °C) is listed as 78%; in series [4] (36 days after radioiodination, stock in HPLC solvent at −80 °C) it was 78%; in series [4] (stock solution used to a maximum of 14 days, −80 °C), more than 92%.
